In test [1] the test system is Escherichia coli ATCC 25922. Kind of test: MIC, growth inhibition in Mueller Hinton Broth. The class given is cell-based. The conditions noted are these: ATCC25922, E. coli ATCC 25922, Gram-negative, read-out: Minimum Inhibitory Concentration E. coli ATCC 25922.
The test system of test [2] is Staphylococcus aureus ATCC 29213. As to the kind of experiment: MIC, growth inhibition in Mueller Hinton Broth. It counts as cell-based. The conditions noted are these: ATCC29213, S. aureus ATCC 29213, Gram positive, read-out: Minimum Inhibitory Concentration S. aureus ATCC 29213.
Test [3] relates to Staphylococcus aureus ZYABL 006. As to the kind of experiment: MIC against fluoroquinolone resistant strain. It counts as cell-based. The conditions noted are these: ZYABL006, quinolone resistant clinical strain, read-out: Minimum Inhibitory Concentration Staphylococcus aureus ZYABL 006.
The target in test [4] is Topoisomerase II (UniProt P20831). As to the kind of experiment: Topoisomerase II inhibition, gel electrophoresis method. The class given is biochemical. The note with it: 37° C. for 30 min, read-out: Invitro IC50 Topoisomerase II. As to the method:
(§1) Evaluation of Topoisomerase II/IV inhibition using gel electrophoresis method: Topoisomerase II/IV (1 unit, Inspiralis) was added to a reaction mixture of DNA (pHOT/kDNA, Topogen) and ATP in appropriate buffers following which different concentrations of the test compounds were added and incubated at 37° C. for 30 min. The reaction was terminated after 30 minutes by the addition of stop buffer. The resulting DNA (relaxed, supercoiled or decatanated) was extracted using chloroform: isoamyl alcohol mixture and was separated using 1% agarose gel electrophoresis. Gel was stained with ethidium bromide for 20 minutes, washed with distilled water and the images were captured for further analysis. The band Intensities from the image were measured using Image J software and the half-maximal […] inhibitory concentration was deduced using Graphpad Prism.

Test [5] deals with T1, Topoisomerase IV (Escherichia coli, UniProt P0AFI2).
T1 construct: purchased Inspiralis
Kind of test: Topoisomerase IV inhibition, gel electrophoresis method. The note with it: 37° C. for 30 min, read-out: Invitro IC50 Topoisomerase IV. It counts as biochemical. As to the method: as §1

Test [6] deals with T2, hERG channel (Homo sapiens, UniProt Q12809).
T2 construct: expressed in transfected cells; host or cells: CHO cells
Kind of test: hERG binding study, FluxOR potassium ion channel assay. It counts as cell-based. The note with it: hERG CHO cells, thallium flux, 20 min incubation. As to the method: FluxOR™ Potassium Ion Channel Assay
Thallium flows down its concentration gradient into the cells, and channel activity is detected with indicator dye that increases in cytosolic fluorescence. Stably expressing hERG CHO cells are checked with test compounds for hERG liability. Compounds incubated for 20 min with cells then stimulation buffer was added and fluorescence measured on TECAN multimode reader. If test compound is inhibiting hERG channel then it will not allow the thallium to flows down in the cells. Vehicle control is considered as total hERG response while treatment with Astemizole as a total hERG channel inhibition and based on that test compounds hERG channel inhibition calculated.
(In general: hERG is a cardiac potassium channel; its block is linked to QT prolongation.)

The test system of test [7] is Enterococcus faecalis (ATCC700802). As to the kind of experiment: MIC testing against broad panel of strains. The conditions noted are these: ATCC700802, read-out: MIC Enterococcus faecalis (ATCC700802).
Description: (§2) The ability of the invention compounds disclosed herein to achieve an antibacterial effect may be evaluated with regard to their ability to inhibit the growth of bacterial species like Escherichia coli ATCC 25922, Staphylococcus aureus ATCC 29213 using an assay based on the following Minimum Inhibitory Concentration (MIC) protocol:
(§3) The test bacteria are grown in Muellor Hinton Broth (M1657)—MHB, 25 grams of the powder is dissolved in 1000 ml distilled water and sterilized by autoclaving at 15 lbs pressure (121° C.) for 20 minutes. The medium sterility is checked by incubating at 37° C. for a period of 48 h.
(§4) Bacterial cultures that are stored as glycerol stocks at −80° C. are sub cultured on LB agar plates to obtain isolated colonies. A single colony of each strain is cultured in LB broth. The cultures are incubated at 37° C., 200 rpm till they reach an optical density (OD at 600 nm) of 0.8 to 1. This log phase culture is diluted in LB broth to a cell number of 5-8*10^5 CFU/mL to be used as inoculum for MIC experiments.
(§5) Test compounds were diluted in their respective solvents and added to a final concentration ranging from 16 to 0.12 μg/ml in 150 μl MHB in 96 well plates.
(§6) Controls to monitor the effects of DMSO and media sterility are included. […] The following morning, the plates are read using a Spectrophotometer at 600 nm wavelength.
Test [8] relates to Staphylococcus pneumonia (ATCC700906). Kind of test: MIC testing against broad panel of strains. The note with it: ATCC700906, read-out: MIC Staphylococcus pneumonia (ATCC700906).
Description: as §2, §3, §4, §5, §6
The test system of test [9] is Staphylococcus aureus (BAA38). Kind of test: MIC testing against broad panel of strains. The conditions noted are these: BAA38, read-out: MIC Staphylococcus aureus (BAA38).
Description: as §2, §3, §4, §5, §6
Test [10] concerns Mycobacterium tuberculosis H37Rv. Kind of test: Mycobacterium tuberculosis H37Rv inhibition assay (MIC). It counts as cell-based. The method, then: Mycobacterium tuberculosis H37Rv Inhibition Assay
The measurement of the minimum inhibitory concentration (MIC) for each tested compound was performed in 96 wells flat bottom, polystyrene microtiter plates following standard protocol.

Test [11] concerns Klebsiella pneumonia (ATCC35657). Kind of test: MIC testing against broad panel of strains. The note with it: Klebsiella pneumoniae, ATCC35657, read-out: MIC Klebsiella pneumonia (ATCC35657).
Description: as §2, §3, §4, §5, §6
For test [12], the system named is Acinetobacter baumannii (BAA1605). As to the kind of experiment: MIC testing against broad panel of strains. The conditions noted are these: BAA1605, read-out: MIC Acinetobacter baumannii (BAA1605).
Description: as §2, §3, §4, §5, §6
Test [13] relates to Escherichia coli (ATCC10536). As to the kind of experiment: MIC testing against broad panel of strains. The conditions noted are these: ATCC10536, read-out: MIC Escherichia coli (ATCC10536).
Description: as §2, §3, §4, §5, §6
The subject of test [14] is Mycobacterium tuberculosis. The conditions noted are these: from WO 2008009700 / J. Med. Chem. 2014, 57, 4889-4905; cited from earlier work.
The test system of test [15] is Enterococcus Faecalis ATCC29212. The note with it: from WO 2018172925; cited from earlier work.
The test system of test [16] is S. pnuemoniae ATCC6301. The note with it: from WO 2018172925; cited from earlier work.
For test [17], the system named is S. aureus-ATCC 29213. The conditions noted are these: from WO 2018172925; cited from earlier work.
Test [18] deals with E. coli ATCC 25922. The conditions noted are these: from WO 2018172925; cited from earlier work.
Test [19] concerns K pneumonia ATCC 700603. The conditions noted are these: from WO 2018172925; cited from earlier work.
For test [20], the system named is Moraxella catarrhalis ATCC8176. The conditions noted are these: from WO 2018172925; cited from earlier work.

≈ marks a conversion by molar mass, not a printed value.

The text below walks through data of patent US20210052597A1, “HETEROCYCLIC COMPOUNDS USEFUL AS ANTIBACTERIAL AGENTS” (CADILA HEALTHCARE LIMITED, priority 2018, published 2021).

Chain of Topoisomerase II (P20831 whole entry): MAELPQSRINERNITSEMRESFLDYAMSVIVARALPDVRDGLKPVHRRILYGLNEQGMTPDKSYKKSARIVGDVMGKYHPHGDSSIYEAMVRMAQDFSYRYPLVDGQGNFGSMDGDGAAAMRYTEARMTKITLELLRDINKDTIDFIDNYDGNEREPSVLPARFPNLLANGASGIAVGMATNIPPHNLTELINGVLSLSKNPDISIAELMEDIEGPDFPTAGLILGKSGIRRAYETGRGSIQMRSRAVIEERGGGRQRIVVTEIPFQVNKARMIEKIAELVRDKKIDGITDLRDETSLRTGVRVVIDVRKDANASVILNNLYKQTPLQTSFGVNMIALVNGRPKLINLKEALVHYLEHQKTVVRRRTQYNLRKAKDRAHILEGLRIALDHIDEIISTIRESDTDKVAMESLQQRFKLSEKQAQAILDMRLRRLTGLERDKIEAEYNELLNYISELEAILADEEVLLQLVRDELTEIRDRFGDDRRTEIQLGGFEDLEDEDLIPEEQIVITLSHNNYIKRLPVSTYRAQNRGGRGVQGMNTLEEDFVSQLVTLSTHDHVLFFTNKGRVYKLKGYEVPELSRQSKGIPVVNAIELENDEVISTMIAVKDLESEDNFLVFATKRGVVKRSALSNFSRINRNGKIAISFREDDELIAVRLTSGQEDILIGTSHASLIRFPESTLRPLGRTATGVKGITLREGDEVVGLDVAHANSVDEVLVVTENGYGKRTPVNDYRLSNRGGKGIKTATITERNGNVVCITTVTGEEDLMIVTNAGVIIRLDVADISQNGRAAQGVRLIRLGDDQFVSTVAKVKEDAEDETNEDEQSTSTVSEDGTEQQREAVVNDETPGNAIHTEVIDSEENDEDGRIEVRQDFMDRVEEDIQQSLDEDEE
T1 sequence (P0AFI2 whole entry): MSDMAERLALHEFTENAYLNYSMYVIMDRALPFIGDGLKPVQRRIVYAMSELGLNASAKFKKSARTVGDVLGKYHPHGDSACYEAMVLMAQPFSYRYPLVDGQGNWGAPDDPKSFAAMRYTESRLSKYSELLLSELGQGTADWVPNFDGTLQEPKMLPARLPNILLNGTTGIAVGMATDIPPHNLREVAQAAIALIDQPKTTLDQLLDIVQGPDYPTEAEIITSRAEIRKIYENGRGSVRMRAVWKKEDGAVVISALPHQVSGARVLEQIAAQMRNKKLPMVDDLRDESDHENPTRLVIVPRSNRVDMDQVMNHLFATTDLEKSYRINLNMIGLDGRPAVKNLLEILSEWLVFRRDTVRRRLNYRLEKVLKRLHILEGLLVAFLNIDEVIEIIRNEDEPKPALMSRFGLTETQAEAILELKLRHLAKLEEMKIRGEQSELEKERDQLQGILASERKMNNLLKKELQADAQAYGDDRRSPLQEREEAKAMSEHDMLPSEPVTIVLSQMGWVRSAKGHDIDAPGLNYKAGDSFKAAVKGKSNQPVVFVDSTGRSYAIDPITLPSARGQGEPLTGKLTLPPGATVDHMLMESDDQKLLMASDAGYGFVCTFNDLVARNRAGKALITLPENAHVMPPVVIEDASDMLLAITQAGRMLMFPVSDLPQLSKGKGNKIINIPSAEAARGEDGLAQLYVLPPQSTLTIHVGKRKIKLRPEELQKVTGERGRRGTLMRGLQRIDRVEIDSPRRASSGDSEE
T1 sequence (P20083 whole entry, further chain): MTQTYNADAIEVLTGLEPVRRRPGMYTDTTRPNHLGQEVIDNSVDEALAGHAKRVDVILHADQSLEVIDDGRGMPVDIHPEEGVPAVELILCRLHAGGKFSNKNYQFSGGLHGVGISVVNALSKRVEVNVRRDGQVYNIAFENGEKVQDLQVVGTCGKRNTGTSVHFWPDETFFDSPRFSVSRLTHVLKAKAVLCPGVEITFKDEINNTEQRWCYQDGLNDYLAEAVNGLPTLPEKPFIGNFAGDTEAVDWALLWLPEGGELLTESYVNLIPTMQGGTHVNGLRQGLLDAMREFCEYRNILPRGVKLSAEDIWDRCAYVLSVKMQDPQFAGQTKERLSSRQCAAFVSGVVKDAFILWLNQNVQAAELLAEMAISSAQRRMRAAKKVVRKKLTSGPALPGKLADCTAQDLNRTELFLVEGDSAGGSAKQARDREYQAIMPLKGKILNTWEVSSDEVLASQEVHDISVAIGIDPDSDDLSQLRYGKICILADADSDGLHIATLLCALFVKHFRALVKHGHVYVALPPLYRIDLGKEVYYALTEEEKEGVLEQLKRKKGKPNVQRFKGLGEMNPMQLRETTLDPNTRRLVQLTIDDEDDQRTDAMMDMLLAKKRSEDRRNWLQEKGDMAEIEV
T2 sequence (Q12809 whole entry): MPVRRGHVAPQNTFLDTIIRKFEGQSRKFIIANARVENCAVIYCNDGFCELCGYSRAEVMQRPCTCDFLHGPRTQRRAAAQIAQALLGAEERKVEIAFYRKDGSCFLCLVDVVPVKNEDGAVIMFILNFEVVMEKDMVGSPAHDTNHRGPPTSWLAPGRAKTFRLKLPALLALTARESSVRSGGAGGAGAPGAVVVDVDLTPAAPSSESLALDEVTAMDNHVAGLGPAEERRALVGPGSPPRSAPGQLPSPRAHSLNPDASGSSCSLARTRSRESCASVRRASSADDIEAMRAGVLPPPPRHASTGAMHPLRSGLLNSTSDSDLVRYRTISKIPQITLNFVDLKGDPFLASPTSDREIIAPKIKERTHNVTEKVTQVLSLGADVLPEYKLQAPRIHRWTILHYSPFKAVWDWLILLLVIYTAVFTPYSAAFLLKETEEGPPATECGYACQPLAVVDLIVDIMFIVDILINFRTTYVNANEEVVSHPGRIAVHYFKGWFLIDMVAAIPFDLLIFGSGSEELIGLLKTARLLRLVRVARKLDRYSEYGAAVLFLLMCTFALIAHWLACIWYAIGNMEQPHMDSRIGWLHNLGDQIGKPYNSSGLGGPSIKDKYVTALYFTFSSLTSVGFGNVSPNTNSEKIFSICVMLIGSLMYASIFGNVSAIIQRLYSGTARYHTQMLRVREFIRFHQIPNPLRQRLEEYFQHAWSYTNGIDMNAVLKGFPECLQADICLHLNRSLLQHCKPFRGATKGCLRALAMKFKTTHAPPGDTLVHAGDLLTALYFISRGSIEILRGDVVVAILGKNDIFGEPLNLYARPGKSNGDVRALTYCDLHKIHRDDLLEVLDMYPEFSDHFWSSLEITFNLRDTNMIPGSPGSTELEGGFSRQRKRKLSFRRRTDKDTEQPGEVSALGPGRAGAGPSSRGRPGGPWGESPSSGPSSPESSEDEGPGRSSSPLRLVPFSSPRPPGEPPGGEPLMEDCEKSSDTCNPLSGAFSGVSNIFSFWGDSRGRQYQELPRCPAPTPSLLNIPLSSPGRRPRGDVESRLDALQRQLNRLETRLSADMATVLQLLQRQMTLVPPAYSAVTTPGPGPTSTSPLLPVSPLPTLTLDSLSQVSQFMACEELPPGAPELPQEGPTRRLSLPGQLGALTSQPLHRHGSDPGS

As a reminder, the IC50 is the concentration that inhibits the measured activity by half. `N#Cc1ccc2ccc(=O)n(CCN3CCC(NCc4ccc5c(c4)OCCO5)CC3)c2c1` [Example 1, 1-(2-(4-(((2,3-dihydrobenzo[b][1,4]dioxin-6-yl)methyl)amino)piperidin-1-yl)ethyl)-2-oxo-1,2-dihydroquinoline-7-carbonitrile]: the MIC was 0.5 µg/mL (≈ 1.12 µM) in [1], 0.03 µg/mL (≈ 0.0675 µM) in test [2] and < 0.125 µg/mL in test [3]. Also, the results for the IC50 in test [4], in [5] and in test [6] were 44 nM, 900 nM and > 30000 nM, respectively.
As for `N#Cc1ccc2ccc(=O)n(CCN3CCC(NCc4ccc5c(c4)NC(=O)CO5)CC3)c2c1` [Example 2, 2-oxo-1-(2-(4-(((3-oxo-3,4-dihydro-2H-benzo[b][1,4]oxazin-6-yl)methyl)amino)piperidin-1-yl)ethyl)-1,2-dihydroquinoline-7-carbonitrile], the results for the MIC in test [1], in [2] and in [3] were 0.25 µg/mL (≈ 0.546 µM), 0.25 µg/mL (≈ 0.546 µM) and < 0.125 µg/mL, respectively. Moreover, the results for the IC50 in [4], in [5] and in [6] were 3.4 nM, 1300 nM and > 10000 nM, respectively.
Turning to `N#Cc1ccc2ccc(=O)n(CCN3CCC(NCc4ccc5c(c4)NC(=O)CS5)CC3)c2c1` [Example 3, 2-oxo-1-(2-(4-(((3-oxo-3,4-dihydro-2H-benzo[b][1,4]thiazin-6-yl)methyl)amino)piperidin-1-yl)ethyl)-1,2-dihydroquinoline-7-carbonitrile], the MIC in test [1] was 0.125 µg/mL (≈ 0.264 µM); in test [7], 0.5 µg/mL (≈ 1.06 µM); in test [2] it was 0.06 µg/mL (≈ 0.127 µM); in [3], < 0.125 µg/mL; in test [8], 0.125 µg/mL (≈ 0.264 µM); in [9], 0.125 µg/mL (≈ 0.264 µM). The MIC in test [10] (Mycobacterium tuberculosis, H37RV, 96 well microtiter plates) was found to be 0.25 µM (≈ 0.118 µg/mL); in [11], 0.25 µg/mL (≈ 0.528 µM); in [12], 0.25 µg/mL (≈ 0.528 µM); in [13], 0.125 µg/mL (≈ 0.264 µM). Further, the values for the IC50 in [4], in test [5] and in test [6] were 3.2 nM, 300 nM and > 10000 nM, respectively. Moreover, the “inhibition of Mycobacterium tuberculosis (in words)” value in test [10] is on record as “potent inhibition”.
On to `O=C1COc2ccc(CNC3CCN(CCn4c(=O)ccc5ccc(F)cc54)CC3)cc2N1` [Example 4, 6-(((1-(2-(7-fluoro-2-oxoquinolin-1(2H)-yl)ethyl)piperidin-4-yl)amino)methyl)-2H-benzo[b][1,4]oxazin-3(4H)-one], for which the MIC in [1], in [2] and in test [3] was < 0.125 µg/mL throughout. Besides, the IC50 is 6.9 nM in test [4], 400 nM in [5] and > 10000 nM in test [6].
For the compound `O=C1CSc2ccc(CNC3CCN(CCn4c(=O)ccc5ccc(F)cc54)CC3)cc2N1` [Example 5, 6-(((1-(2-(7-fluoro-2-oxoquinolin-1(2H)-yl)ethyl)piperidin-4-yl)amino)methyl)-2H-benzo[b][1,4]thiazin-3(4H)-one], the MIC is 0.25 µg/mL (≈ 0.536 µM) in test [1], 0.25 µg/mL (≈ 0.536 µM) in test [2] and < 0.125 µg/mL in test [3]. For the same compound, the figures for the IC50 in test [4], in test [5] and in test [6] were 38.4 nM, 800 nM and > 10000 nM, respectively.
With `N#Cc1ccc2ncc(=O)n(CCN3CCC(NCc4ccc5c(c4)NC(=O)CS5)CC3)c2c1` [Example 6, 3-oxo-4-(2-(4-(((3-oxo-3,4-dihydro-2H-benzo[b][1,4]thiazin-6-yl)methyl)amino)piperidin-1-yl)ethyl)-3,4-dihydroquinoxaline-6-carbonitrile], the MIC in [1] and in [2] was < 0.125 µg/mL in each case.
On to `N#Cc1ccc2ccc(=O)n(CCN3CCC(NCc4cc5c(cn4)OCCO5)CC3)c2c1` [Example 54], for which the “MIC against Mycobacterium tuberculosis” value in test [14] was 1 µM (≈ 0.446 µg/mL).
For `Cc1ccc(CNC2CCN(CCn3c(=O)ccc4ccc(C#N)cc43)CC2)cc1[N+](=O)[O-]` [VT-03-00065], the “MIC Enterococcus Faecalis ATCC29212” value in test [15] is > 32 µg/mL. The “MIC S. pnuemoniae ATCC6301” value in test [16] is 4 µg/mL (≈ 8.98 µM). The “MIC S. aureus-ATCC 29213” value in test [17] is 0.25 µg/mL (≈ 0.561 µM). Moreover, the “MIC E. coli ATCC 25922” value in test [18] is > 32 µg/mL. Also, in test [19], the “MIC K pneumonia ATCC 700603” value is > 32 µg/mL. For the same compound, the “MIC Moraxella catarrhalis ATCC8176” value in test [20] is > 32 µg/mL.
